Results from patent US5143920A, “Substituted 4-aminoquinoline derivatives as gastric secretion inhibitors” (SmithKline Beckman Intercredit B.V., priority 1988, dated 1992).

Target: T1, H^+ K^+ ATPase (Sus scrofa, UniProt P19156)
T1 construct: Lyophilised gastric vesicles were prepared from pig fundic mucosa; from tissue; host or cells: pig fundic mucosa (lyophilised gastric vesicles)
Test: K^+ -stimulated ATPase activity in lyophilised gastric vesicles (H^+ K^+ ATPase Activity)
Assay type: biochemical
Conditions: inhibition of K^+ -stimulated ATPase activity, lyophilised gastric vesicles from pig fundic mucosa, 37° C., pH 7.0, 1 mM KCl, 2 mM Na2 ATP, 30 minutes
Procedure: The effects of a single high concentration ([…]) of a compound of structure (I) on K^+ -stimulated ATPase activity in lyophilised gastric vesicles was determined. Preferred compounds of structure (I) were also tested over a range of concentrations to determine IC50 values.
Lyophilised gastric vesicles were prepared from pig fundic mucosa after the method of Keeling et. al. (Biochem. Pharmacol, 34, 2967, 1985).
K^+ -stimulated ATPAse activity was determined at 37° C. in the presence of the following: 10 mM Pipes/Tris buffer pH 7.0, 2 mM MgSO4, 1 mM KCl, 2 mM Na2 ATP and […] lyophilised gastric vesicles. After incubation for 30 minutes, the inorganic phosphate hydrolysed from ATP was determined by the method of Yoda and Hokin (Biochem. Biophys, Res. Commun. 40, 880, 1970).
Compounds of structure (I) were dissolved in dimethylsulphoxide which up to the highest concentration used had no effect on K^+ -stimulated ATPase activity.
The effect of the highest concentration of each compound of structure (I) on the recovery of a standard amount of inorganic phosphate was also determined.

T1 sequence (P19156 2-1034 limits assumed): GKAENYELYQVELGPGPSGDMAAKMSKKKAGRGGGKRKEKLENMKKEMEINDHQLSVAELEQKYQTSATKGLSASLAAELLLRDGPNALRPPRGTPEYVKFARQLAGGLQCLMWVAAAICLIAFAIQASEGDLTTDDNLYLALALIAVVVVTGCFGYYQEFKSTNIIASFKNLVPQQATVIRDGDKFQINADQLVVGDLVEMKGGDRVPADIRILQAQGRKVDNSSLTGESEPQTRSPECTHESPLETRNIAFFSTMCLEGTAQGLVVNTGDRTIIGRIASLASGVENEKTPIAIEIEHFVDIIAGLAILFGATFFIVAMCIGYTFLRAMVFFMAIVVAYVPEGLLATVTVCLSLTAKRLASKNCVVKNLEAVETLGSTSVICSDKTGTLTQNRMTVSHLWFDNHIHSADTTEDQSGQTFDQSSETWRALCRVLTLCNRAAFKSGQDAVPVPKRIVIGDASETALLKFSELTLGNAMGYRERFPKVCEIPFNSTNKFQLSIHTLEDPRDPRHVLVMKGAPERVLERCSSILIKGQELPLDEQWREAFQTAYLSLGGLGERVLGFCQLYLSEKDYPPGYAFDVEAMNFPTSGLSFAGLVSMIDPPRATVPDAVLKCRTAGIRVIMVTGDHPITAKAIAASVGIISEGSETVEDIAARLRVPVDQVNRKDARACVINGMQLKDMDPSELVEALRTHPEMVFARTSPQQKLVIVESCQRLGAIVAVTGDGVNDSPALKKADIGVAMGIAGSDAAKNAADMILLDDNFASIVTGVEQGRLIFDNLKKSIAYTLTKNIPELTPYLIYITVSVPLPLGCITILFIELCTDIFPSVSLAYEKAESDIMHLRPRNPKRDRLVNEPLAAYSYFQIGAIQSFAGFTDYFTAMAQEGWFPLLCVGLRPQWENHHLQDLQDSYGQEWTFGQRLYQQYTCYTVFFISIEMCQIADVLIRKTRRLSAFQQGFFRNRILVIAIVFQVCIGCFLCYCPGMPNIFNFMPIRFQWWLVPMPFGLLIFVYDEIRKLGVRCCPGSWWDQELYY
T1 sequence (P18434 whole entry partner): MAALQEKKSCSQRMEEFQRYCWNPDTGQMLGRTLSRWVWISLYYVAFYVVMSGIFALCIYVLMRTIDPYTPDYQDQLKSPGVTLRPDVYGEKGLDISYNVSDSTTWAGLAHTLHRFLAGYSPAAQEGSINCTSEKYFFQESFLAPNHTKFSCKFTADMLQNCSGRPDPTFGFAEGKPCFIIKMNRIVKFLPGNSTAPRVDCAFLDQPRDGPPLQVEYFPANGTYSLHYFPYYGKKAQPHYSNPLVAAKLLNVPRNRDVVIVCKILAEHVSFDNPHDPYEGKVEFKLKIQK

SMILES | IC50 [nM]
CCOC(=O)c1cnc2c(OC)cccc2c1Nc1ccc(O)cc1C [Compound 9, Ethyl 8-methoxy-4-(4-hydroxy-2-methylphenylamino)-quinoline-3-carboxylate] | 80
COc1cccc2c(Nc3ccc(O)cc3C)c(C(=O)C(C)C)cnc12 [Compound 12, 3-isobutyryl-4-(4-hydroxy-2-methylphenylamino)-8-methoxyquinoline] | 160
CCCC(=O)c1cnc2ccc(O)cc2c1Nc1ccc(O)cc1C [Compound 16, 3-butyryl-4-(4-hydroxy-2-methylphenylamino)-6-hydroxyquinoline] | 70
CCCC(=O)c1cnc2c(OC)cc(O)cc2c1Nc1ccc(O)cc1C [Compound 17, 3-butyryl-4-(4-hydroxy-2-methylphenylamino)-6-hydroxy-8-methoxyquinoline] | 1300
